The target of this assay is G-protein coupled receptor 35 (Homo sapiens, UniProt Q9HC97). Nature of the assay: inhibitors of PMA/ionomycin-induced NF-kB reporter, SAR follow-up, cell-based, PMA/ionomycin inducer, luciferase, set 2 (AID 2792).

2 compounds from BindingDB's records for doi:10.7270/Q2C24TWT (Burnham Center For Chemical Genomics, 2010) can be followed below.

Sequence of G-protein coupled receptor 35 (Q9HC97 whole entry): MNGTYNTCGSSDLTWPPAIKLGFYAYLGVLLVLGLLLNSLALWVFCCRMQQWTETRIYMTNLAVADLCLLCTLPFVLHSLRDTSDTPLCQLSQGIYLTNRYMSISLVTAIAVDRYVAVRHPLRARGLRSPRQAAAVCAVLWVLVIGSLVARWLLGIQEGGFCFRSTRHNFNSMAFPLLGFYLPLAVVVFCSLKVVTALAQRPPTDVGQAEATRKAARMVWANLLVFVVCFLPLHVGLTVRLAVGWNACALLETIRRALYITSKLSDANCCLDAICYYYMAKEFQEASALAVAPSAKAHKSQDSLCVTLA

The IC50 is the point on the concentration scale where inhibition reaches its midpoint. For `CCCn1c(SCC(=O)Nc2nc3c(s2)CCCC3)nc2c1c(=O)n(C)c(=O)n2C` [2-(1,3-Dimethyl-2,6-dioxo-7-propyl-2,3,6,7-tetrahydro-1H-purin-8-ylsulfanyl)-N-(4,5,6,7-tetrahydro-benzothiazol-2-yl)-acetamide], the IC50 is 17.8 µM. In the case of `CCCCn1c(CN2CCN(c3cccc(Cl)c3)CC2)nc2c1c(=O)n(C)c(=O)n2C` [MLS-0004183.0001] it was 3.51 µM.
